Assay results from patent US9814758B2, “Inhibitors of apoptosis and uses thereof” (CENTRE NATIONAL DE LA RECHERCHE SCIENTIFIQUE-CNRS, priority 2010, dated 2017).
Non-standard residues stand in square brackets, D forms with d. Residues, ends and D or L forms follow the SMILES beside them. No end group written: not given here. Ahx = NCCCCCC(=O)O

Experiments:
[1] = system: H9c2 cells; assay: STS-induced DNA fragmentation (Cell Death detection ELISA PLUS) in H9c2 cells; format: cell-based, rat; conditions: rat H9c2 (model for cardiac cells); FIG. 5C
Description: FIG. 5: In vitro evaluation of the anti-apoptotic activity of CPPs and CPP-conjugates. Workflow and quantitation of DNA fragmentation in (A) C2C12 cells, (B) primary cardiomyocytes, (C) H9c2 cells and (D) NG108-15 cells. Data were normalized to 100% STS. Data shown are the means±SEM, with n≧5. Cells were seeded in 24-well plates and grown overnight. The next day, the cells were incubated with STS alone or with STS+1 μM peptide (in OPTI-MEM) (OPTI-MEM® is a modification of Eagle's Minimum Essential Media, buffered with HEPES and sodium bicarbonate, and supplemented with hypoxanthine, thymidine, sodium pyruvate, L-glutamine, trace elements, and growth factors) (STS concentration and incubation time for each cells are given in the figure). Thereafter, solutions were removed, replaced by complete medium and further incubated for 40 h. Following the regeneration phase, the cells were lyzed and DNA fragmentation was detected according to manufacturer's instructions (Cell Death detection ELISA^PLUS kit—Roche Diagnostics). […]
Thereafter, the capacity of these peptides to inhibit apoptosis induced by staurosporine was evaluated. Apoptosis was determined using the Cell Death detection ELISA^PLUS kit (Roche) measuring the DNA fragmentation.
The anti-apoptotic effects of the peptides were also analyzed in murine NG118-15 (model for neuronal cells) (FIG. 5D), in murine C2C12 (model for muscle cells) (FIG. 5A) and in rat H9c2 (model for cardiac cells) (FIG. 5C). The highest reduction in DNA fragmentation were observed using Bpep-DAXXp in NG118-15 (66% reduction) using Tat-DAXXp in C2C12 (24% reduction) and Pip2b-DAXXp in H9c2 (31% reduction).

[2] = system: C57Bl6 mice, myocardial ischemia-reperfusion; assay: Myocardial ischemia-reperfusion IR24h (40 min ischemia, 24 h reperfusion); format: in vivo, mouse; conditions: reperfusion prolonged from 1 hour to 24 hours
Description: FIG. 11: In vivo experimental protocol. C57Bl6 mice underwent a surgical protocol of myocardial ischemia-reperfusion (IR). The black box represents the period of ischemia to which the mice were submitted. Infarct size or cell death measurements were performed at the end of surgery for each protocol (indicated by ↑). IR60′: 40 minutes of Ischemia, 60 minutes of Reperfusion. IR24h: 40 minutes Ischemia and 24 hours Reperfusion.
FIG. 14: Cardioprotective effects of Tat-DAXXp (1 mg/kg-IV) in mice subjected to IR24h. Infarct size (in % of area at risk) and internucleosomal DNA fragmentation determined by ELISA were quantified in mice subjected to IR24H and treated with Tat, Tat-DAXXp or Tat-scrDAXXp (1 mg/kg) as well as with DAXXp (10 mg/kg) (IV injection 5 minutes before reperfusion). […]
FIG. 15: Dose response for Tat-DAXXp and DAXXp in mice subjected to IR24h. Area at risk and infarct size (in % of area at risk) were measured in mice subjected to IR24h and treated by Tat (1 mg/kg), Tat-DAXXp (0.1, 1 and 10 mg/kg) or DAXXp (0.1, 1 and 10 mg/kg) injected intravenously 5 minutes before reperfusion. […]
In a second step, the cardioprotective effects of DAXXp were evaluated in an in vivo model of myocardial ischemia-reperfusion. […]

[3] = system: kidney graft; assay: Cold ischemia/reperfusion injury during kidney transplantation; format: in vivo, rat; conditions: preliminary
Text: FIG. 17: Preliminary data on cold ischemia/reperfusion injury during kidney transplantation. Brain death and prolonged cold ischemia are major contributors to the poorer long-term outcome of transplants from deceased donor kidney transplants, with an even higher impact if expanded criteria donors (‘marginal organs’) are used. Targeting ischemia-reperfusion (IR) injury-related intragraft inflammation is an attractive concept to improve the outcome of those grafts. (A) Workflow of cold ischemia/reperfusion during kidney transplantation in rat. After a 24 h cold ischemia, the kidney graft was transplanted orthotopically into male LEW recipients using standard microsurgical techniques. Peptides were injected immediately after reperfusion in a single i.v injection at 1 mg/kg. Three days after transplantation, grafts were harvested for RT-PCR analysis (n=3). (B) Total RNA was reverse transcribed into cDNA and subjected to quantitative real-time RT-PCR utilizing the GENEAMP® 5700 Sequence Detection System (Applied Biosystems, Weiterstadt, Germany). The TAQMAN®-PCR reactions for ICAM-1, IFN-γ, TNF-α, interleukin (IL)-6 and bcl-2 (synthesized by Metabion, Martinsried, Germany) were performed in a final volume of 25 μl.

[4] = 1 mg/kg single i.v. after reperfusion, kidney graft 3 days after transplantation, RT-PCR

CC[C@H](C)[C@H](NC(=O)[C@H](Cc1c[nH]cn1)NC(=O)[C@@H](NC(=O)[C@H](CCCNC(=N)N)NC(=O)CCCCCNC(=O)[C@H](CCCNC(=N)N)NC(=O)[C@H](CCCNC(=N)N)NC(=O)CCCCCNC(=O)[C@H](CCCNC(=N)N)NC(=O)[C@H](CCCNC(=N)N)NC(=O)CCCCCNC(=O)[C@@H](N)CCCNC(=N)N)[C@@H](C)CC)C(=O)N[C@@H](CC(C)C)C(=O)N[C@@H](Cc1ccccc1)C(=O)N[C@@H](CCC(N)=O)C(=O)N[C@@H](CC(N)=O)C(=O)N[C@H](CCCNC(=N)N)C(=O)N[C@@H](CCCNC(=N)N)C(=O)N[C@@H](CCSC)C(=O)N[C@@H](CCCCN)C(=O)N[C@@H](Cc1c[nH]c2ccccc12)C(=O)N[C@@H](Cc1c[nH]cn1)C(=O)N[C@@H](CCCCN)C(=O)N[C@@H](CCCCN)C(=O)N[C@@H](CCCCN)C(=O)N[C@@H](CO)C(=O)N[C@@H](CCCNC(=N)N)C(=O)N[C@@H](CCCCN)C(=O)N[C@@H](CCC(=O)O)C(=O)N[C@@H](CCCCN)C(=O)N[C@@H](CCCCN)C(=O)N[C@@H](CCC(N)=O)C(=O)N[C@H](C(=O)NCC(=O)N[C@@H](CO)C(=O)NCC(=O)N1CCC[C@H]1C(=O)N[C@@H](CC(C)C)C(=O)NCC(N)=O)[C@@H](C)O [Pip2b-DAXXp, (RXR)3-IHILFQNrRMKWHK-KKSRKEKKQTGSGPLG-NH2] (H-R[Ahx]RR[Ahx]RR[Ahx]RIHILFQN[dR]RMKWHKKKSRKEKKQTGSGPLG-NH2; N-terminus assumed)
reduction in DNA fragmentation [1]: 31%

GRKKRRQRRRPPQKKSRKEKKQTGSGPLG-NH2 [Tat-DAXXp, GRKKRRQRRRPPQ-KKSRKEKKQTGSGPLG-NH2]
cardioprotective effects at prolonged reperfusion [2]: maintained | mRNA expression of ICAM-1 [3, 4]: reduction in mRNA expression | mRNA expression of IFN-γ [3, 4]: reduction in mRNA expression | protection from ischemia-reperfusion injuries ([3]; 1 mg/kg, renal transplantation model (Rat)): able to protect from ischemia-reperfusion injuries
